Measured values reported in ChEMBL document CHEMBL1128553, “Synthesis of 1,4,7,8,9,10-hexahydro-9-methyl-6-nitropyrido[3,4-f]- quinoxaline-2,3-dione and related quinoxalinediones: characterization of alpha-amino-3-hydroxy-5-methyl-4-isoxazolepropionic acid (and N-methyl-D-aspartate) receptor and anticonvulsant activity” (J Med Chem, 1995).

How the values were obtained:
[1] = target: T1, Glutamate receptor ionotropic, AMPA (Rattus norvegicus, UniProt P19490+P19491+P19492+P19493)
Description: (§1) Binding affinity was determined against ionotropic glutamate receptor AMPA in rat brain synaptic membranes using [3H]AMPA as radioligand

[2] = target: Glutamate receptor ionotropic, NMDA 1 (Rattus norvegicus, UniProt P35439); assay: Affinity for N-methyl-D-aspartate glutamate receptor 1 in rat brain synaptic membranes, using [3H]glycine as radioligand; type: cell membranes
[3] = target: Glutamate receptor ionotropic, kainate; assay: Binding affinity for the ionotropic glutamate receptor kainate in rat brain synaptic membranes using [3H]kainate as radioligand; type: cell membranes
Rattus norvegicus [4] = species on record: Rattus norvegicus; assay: Concentration of compound that inhibits by 50% LDH released by 24 hr application of 500 uM kainate; type: functional, organism-based
[5] = target: T1, Glutamate receptor ionotropic, AMPA; remark: listed apart in the source
Description: Inhibition of Ionotropic glutamate receptor AMPA induced depolarization in rat cortical wedge by application of 10 uM of AMPA

Rattus norvegicus [6] = species on record: Rattus norvegicus; assay: Concentration of compound that inhibits by 50% depolarizations induced by 10 uM AMPA; type: functional
Rattus norvegicus [7] = species on record: Rattus norvegicus; assay: Concentration of compound that inhibits by 50% LDH released by 24 hr application of 100 uM AMPA; type: functional, organism-based
[8] = target: T1, Glutamate receptor ionotropic, AMPA; remark: listed apart in the source
Description: Antagonistic activity against Ionotropic glutamate receptor AMPA induced LDH release in cultured rat cortical neurons after 24 hr 100 uM AMPA

[9] = target: Glutamate receptor ionotropic, kainate; assay: Antagonistic activity against Ionotropic glutamate receptor kainate induced LDH release in cultured cortical neurons in rat after 24 hr application of 500 uM of kainate; type: functional
[10] = target: Glutamate receptor ionotropic, AMPA (Rattus norvegicus, UniProt P19491+P19492+P19493+P19490)
Glutamate receptor ionotropic, AMPA (Rattus norvegicus, UniProt P19491+P19492+P19493+P19490), sequence (P19491 whole entry): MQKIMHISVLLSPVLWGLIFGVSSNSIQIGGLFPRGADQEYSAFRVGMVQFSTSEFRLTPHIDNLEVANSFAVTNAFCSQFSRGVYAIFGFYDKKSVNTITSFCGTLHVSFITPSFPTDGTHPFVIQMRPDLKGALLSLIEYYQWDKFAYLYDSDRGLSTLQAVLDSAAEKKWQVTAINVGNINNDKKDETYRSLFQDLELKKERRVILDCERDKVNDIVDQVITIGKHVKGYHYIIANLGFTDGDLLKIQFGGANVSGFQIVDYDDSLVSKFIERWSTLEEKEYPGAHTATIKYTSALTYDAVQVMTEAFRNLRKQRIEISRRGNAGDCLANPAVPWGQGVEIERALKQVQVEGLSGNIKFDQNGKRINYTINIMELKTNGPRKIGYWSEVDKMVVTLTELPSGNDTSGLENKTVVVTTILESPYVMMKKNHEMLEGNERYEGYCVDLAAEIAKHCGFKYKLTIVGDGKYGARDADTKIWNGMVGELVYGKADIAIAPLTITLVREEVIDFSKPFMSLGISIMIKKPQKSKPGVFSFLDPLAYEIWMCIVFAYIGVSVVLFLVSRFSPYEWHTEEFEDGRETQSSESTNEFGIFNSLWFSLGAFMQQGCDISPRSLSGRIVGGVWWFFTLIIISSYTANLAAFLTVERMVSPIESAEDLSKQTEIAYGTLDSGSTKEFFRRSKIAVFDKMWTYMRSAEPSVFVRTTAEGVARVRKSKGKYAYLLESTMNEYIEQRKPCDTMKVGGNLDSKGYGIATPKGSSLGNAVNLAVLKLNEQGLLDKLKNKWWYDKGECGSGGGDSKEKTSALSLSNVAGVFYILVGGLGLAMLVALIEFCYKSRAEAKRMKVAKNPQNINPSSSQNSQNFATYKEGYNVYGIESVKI
Glutamate receptor ionotropic, AMPA (Rattus norvegicus, UniProt P19491+P19492+P19493+P19490), sequence (P19492 whole entry): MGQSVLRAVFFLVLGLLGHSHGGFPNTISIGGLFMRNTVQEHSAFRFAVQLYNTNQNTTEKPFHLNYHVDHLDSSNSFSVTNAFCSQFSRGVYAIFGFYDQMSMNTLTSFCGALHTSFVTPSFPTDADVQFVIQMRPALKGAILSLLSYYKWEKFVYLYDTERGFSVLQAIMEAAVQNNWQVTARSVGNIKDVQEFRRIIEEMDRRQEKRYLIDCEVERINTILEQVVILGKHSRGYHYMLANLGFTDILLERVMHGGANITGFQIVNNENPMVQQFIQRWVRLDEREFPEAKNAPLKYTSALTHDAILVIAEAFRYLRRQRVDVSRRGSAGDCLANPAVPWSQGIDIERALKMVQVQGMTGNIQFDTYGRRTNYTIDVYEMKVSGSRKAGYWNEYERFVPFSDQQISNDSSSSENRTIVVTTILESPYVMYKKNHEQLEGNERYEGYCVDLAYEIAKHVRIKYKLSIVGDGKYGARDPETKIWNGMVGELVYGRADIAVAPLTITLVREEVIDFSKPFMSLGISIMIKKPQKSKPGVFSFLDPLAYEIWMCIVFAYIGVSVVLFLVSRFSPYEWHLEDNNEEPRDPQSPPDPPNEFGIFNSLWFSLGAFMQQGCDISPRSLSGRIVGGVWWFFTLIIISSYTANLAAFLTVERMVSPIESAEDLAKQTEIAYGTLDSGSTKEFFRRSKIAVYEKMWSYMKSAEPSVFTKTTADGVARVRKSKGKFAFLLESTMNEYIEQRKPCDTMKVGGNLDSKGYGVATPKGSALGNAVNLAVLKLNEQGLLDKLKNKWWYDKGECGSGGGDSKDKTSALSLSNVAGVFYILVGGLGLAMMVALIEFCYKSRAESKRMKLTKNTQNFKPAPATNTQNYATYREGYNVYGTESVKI
Glutamate receptor ionotropic, AMPA (Rattus norvegicus, UniProt P19491+P19492+P19493+P19490), sequence (P19493 whole entry): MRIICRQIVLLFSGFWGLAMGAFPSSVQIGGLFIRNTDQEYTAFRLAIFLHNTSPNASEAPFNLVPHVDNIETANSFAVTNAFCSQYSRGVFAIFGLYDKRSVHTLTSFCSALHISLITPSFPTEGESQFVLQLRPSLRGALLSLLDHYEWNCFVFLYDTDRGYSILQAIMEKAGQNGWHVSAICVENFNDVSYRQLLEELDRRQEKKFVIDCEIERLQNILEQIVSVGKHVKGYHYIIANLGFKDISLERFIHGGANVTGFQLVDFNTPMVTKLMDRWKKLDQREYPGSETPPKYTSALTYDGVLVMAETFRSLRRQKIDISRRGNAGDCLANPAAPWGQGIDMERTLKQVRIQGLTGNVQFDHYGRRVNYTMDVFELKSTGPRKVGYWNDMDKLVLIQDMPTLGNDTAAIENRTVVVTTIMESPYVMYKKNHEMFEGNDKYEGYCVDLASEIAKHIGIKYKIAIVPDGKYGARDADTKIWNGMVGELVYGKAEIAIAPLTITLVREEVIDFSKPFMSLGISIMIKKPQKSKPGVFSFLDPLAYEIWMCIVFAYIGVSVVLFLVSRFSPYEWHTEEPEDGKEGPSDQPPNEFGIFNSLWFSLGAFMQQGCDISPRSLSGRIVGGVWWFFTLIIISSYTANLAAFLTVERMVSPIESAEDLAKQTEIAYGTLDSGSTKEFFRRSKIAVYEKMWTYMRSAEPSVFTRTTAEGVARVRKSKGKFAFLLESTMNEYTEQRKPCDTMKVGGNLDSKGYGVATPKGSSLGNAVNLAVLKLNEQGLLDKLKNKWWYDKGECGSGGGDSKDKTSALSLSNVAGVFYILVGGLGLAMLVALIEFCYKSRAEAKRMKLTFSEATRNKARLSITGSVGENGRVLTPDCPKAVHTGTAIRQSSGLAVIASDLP
Glutamate receptor ionotropic, AMPA (Rattus norvegicus, UniProt P19491+P19492+P19493+P19490), sequence (P19490 whole entry): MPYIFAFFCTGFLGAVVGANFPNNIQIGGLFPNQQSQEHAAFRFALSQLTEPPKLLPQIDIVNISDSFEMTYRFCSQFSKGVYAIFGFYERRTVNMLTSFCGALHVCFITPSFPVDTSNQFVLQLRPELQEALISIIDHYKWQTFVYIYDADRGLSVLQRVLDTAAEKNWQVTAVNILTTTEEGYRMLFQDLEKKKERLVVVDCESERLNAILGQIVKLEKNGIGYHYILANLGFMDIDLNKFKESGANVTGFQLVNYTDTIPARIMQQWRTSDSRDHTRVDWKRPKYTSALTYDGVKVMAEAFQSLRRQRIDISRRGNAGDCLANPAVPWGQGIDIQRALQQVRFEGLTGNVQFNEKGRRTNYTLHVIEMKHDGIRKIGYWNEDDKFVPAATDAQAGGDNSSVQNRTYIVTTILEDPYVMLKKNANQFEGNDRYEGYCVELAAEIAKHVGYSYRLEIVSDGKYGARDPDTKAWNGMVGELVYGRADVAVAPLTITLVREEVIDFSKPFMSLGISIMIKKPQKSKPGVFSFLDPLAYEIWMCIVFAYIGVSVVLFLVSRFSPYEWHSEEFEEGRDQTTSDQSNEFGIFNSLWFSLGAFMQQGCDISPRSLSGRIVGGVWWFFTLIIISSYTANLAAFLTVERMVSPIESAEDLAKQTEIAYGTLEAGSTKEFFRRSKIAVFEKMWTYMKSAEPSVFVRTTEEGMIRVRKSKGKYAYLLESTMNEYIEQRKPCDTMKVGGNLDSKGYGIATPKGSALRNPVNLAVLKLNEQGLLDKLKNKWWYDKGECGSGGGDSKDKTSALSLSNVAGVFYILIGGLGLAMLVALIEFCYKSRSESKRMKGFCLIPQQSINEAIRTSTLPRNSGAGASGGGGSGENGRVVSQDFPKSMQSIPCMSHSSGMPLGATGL
Description: as §1

## CN1CCc2c(Br)cc3[nH]c(=O)c(=O)[nH]c3c2C1
[1]
  IC50: 2.84 µM
[2]
  IC50: 4 µM
[3]
  IC50: 2.83 µM

## CC(C)CCN1CCc2c(Br)cc3nc(O)c(O)nc3c2C1
Rattus norvegicus [4]
  IC50: > 30 µM
[1]
  IC50: 9.7 µM
[5]
  IC50: 16.5 µM
[2]
  IC50: > 10 µM
Rattus norvegicus [6]
  IC50: 16.5 µM
Rattus norvegicus [7]
  IC50: > 30 µM
[8]
  IC50: > 30 µM
[3]
  IC50: 0.68 µM
[9]
  IC50: > 30 µM

## CCC(C)N1CCc2c(Br)cc3nc(O)c(O)nc3c2C1 (stereo not given)
[1]
  IC50: 2.5 µM
[2]
  IC50: > 10 µM
[3]
  IC50: 0.43 µM

## CC(C)CCN1CCc2ccc3nc(O)c(O)nc3c2C1
[1]
  IC50: 123 µM
[3]
  IC50: 25 µM

## CCN1CCc2c(Br)cc3[nH]c(=O)c(=O)[nH]c3c2C1
[1]
  IC50: 0.74 µM
[2]
  IC50: 0.62 µM
[3]
  IC50: 6.4 µM

## O=C(NS(=O)(=O)c1ccccc1)c1nc2cc(Cl)c(Cl)cc2[nH]c1=O
[1]
  IC50: 4.3 µM

## CN1CCc2c(c(C(=O)O)cc3nc(O)c(O)nc23)C1
[1]
  IC50: 56 µM
[3]
  IC50: 36 µM

## CN1CCc2c([N+](=O)[O-])cc3[nH]c(=O)c(=O)[nH]c3c2C1
Rattus norvegicus [4]
  IC50: 4 µM
[1]
  IC50: 0.063 µM
[5]
  IC50: 0.5 µM
[2]
  IC50: 0.37 µM
Rattus norvegicus [6]
  IC50: 0.5 µM
Rattus norvegicus [7]
  IC50: 2.5 µM
[10]
  IC50: 0.063 µM
[8]
  IC50: 2.5 µM
[3]
  IC50: 0.368 µM
[9]
  IC50: 4 µM

## CCc1cnc2c(O)nc3cc([N+](=O)[O-])c(-n4ccnc4)cc3n12
[1]
  IC50: 0.02 µM

## CCOC(=O)C(=O)N1CCCc2c1ccc1[nH]c(=O)c(=O)[nH]c21
[1]
  IC50: 13 µM
[2]
  IC50: 50 µM
[3]
  IC50: 20 µM

## CN1Cc2c(S(=O)(=O)N(C)C)cc3c(N=O)c(O)[nH]c3c2C1
[1]
  IC50: 0.6 µM

## CCN1CCc2ccc3[nH]c(=O)c(=O)[nH]c3c2C1
[1]
  IC50: 41 µM
[3]
  IC50: 20 µM

## CC(C)CCN1CCc2c([N+](=O)[O-])cc3[nH]c(=O)c(=O)[nH]c3c2C1
Rattus norvegicus [4]
  IC50: 7 µM
[1]
  IC50: 0.11 µM
[2]
  IC50: 0.86 µM
Rattus norvegicus [7]
  IC50: 5 µM
[8]
  IC50: 5 µM
[3]
  IC50: 1.18 µM
[9]
  IC50: 7 µM

## CN1CCc2c(N)cc3[nH]c(=O)c(=O)[nH]c3c2C1
[1]
  IC50: 100 µM
[2]
  IC50: > 100 µM
[3]
  IC50: 28 µM

## CCCN1CCc2c(c(Br)cc3nc(O)c(O)nc23)C1
[1]
  IC50: 1.1 µM
[2]
  IC50: > 10 µM
[3]
  IC50: 6.4 µM

## CN1CCc2c(c(Br)c([N+](=O)[O-])c3[nH]c(=O)c(=O)[nH]c23)C1
[1]
  IC50: 1.9 µM
[2]
  IC50: > 10 µM
[3]
  IC50: 5.7 µM

## CCN1CCc2c(ccc3nc(O)c(O)nc23)C1
[1]
  IC50: 21 µM
[3]
  IC50: 37 µM

## O=c1[nH]c2cc(Br)c3c(c2[nH]c1=O)CCCN3
[1]
  IC50: 9 µM

## CN1CCc2c(c([N+](=O)[O-])cc3[nH]c(=O)c(=O)[nH]c23)C1
Rattus norvegicus [4]
  IC50: 9 µM
[1]
  IC50: 0.29 µM
[5]
  IC50: 1.8 µM
[2]
  IC50: 4.9 µM
Rattus norvegicus [6]
  IC50: 1.8 µM
Rattus norvegicus [7]
  IC50: 18 µM
[8]
  IC50: 18 µM
[3]
  IC50: 0.38 µM
[9]
  IC50: 9 µM

## CC(=O)Nc1cc2[nH]c(=O)c(=O)[nH]c2c2c1CCN(C)C2
[1]
  IC50: > 100 µM
[2]
  IC50: > 100 µM
[3]
  IC50: > 100 µM

## Oc1nc2ccc3c(c2nc1O)CCCN3
[1]
  IC50: 24 µM
[3]
  IC50: 8.9 µM

## CN1CCc2c(c(Br)cc3[nH]c(=O)c(=O)[nH]c23)C1
[1]
  IC50: 1.86 µM
[2]
  IC50: 4.3 µM
[3]
  IC50: 1.76 µM

## CCC(C)CN1CCc2ccc3nc(O)c(O)nc3c2C1 (stereo not given)
[1]
  IC50: > 100 µM

## CCC(C)CN1CCc2c([N+](=O)[O-])cc3[nH]c(=O)c(=O)[nH]c3c2C1 (stereo not given)
Rattus norvegicus [4]
  IC50: 11 µM
[1]
  IC50: 0.28 µM
[2]
  IC50: 1.3 µM
Rattus norvegicus [7]
  IC50: 8 µM
[8]
  IC50: 8 µM
[3]
  IC50: 0.28 µM
[9]
  IC50: 11 µM

## O=c1[nH]c2cc(-n3ccnc3)c([N+](=O)[O-])cc2[nH]c1=O [YM-90K]
[1]
  IC50: 0.2 µM
